Reference: the supplement of paper PMC10132981, “Formate overflow drives toxic folate trapping in MTHFD1 inhibited cancer cells” (Nature Metabolism, 2023)

Assays:
Assay in all cases: EC50 for viability (resazurin, 96 h)
HCT116 = conditions: RPMI+GlutaMAX (10% FBS, 1% P/S)
SW620 = tested on: SW620
PA-TU-8988T = conditions: DMEM+GlutaMAX (5% dFBS, 1% P/S); metabolite supplement: Thymidine
SW620 MTHFD2-/- = conditions: RPMI+GlutaMAX (5% dFBS, 1% P/S)
SW620 MTHFD2 -/- = tested on: SW620 MTHFD2 -/-
SW620 WT = tested on: SW620 WT

O=c1[nH]cc(F)c(=O)[nH]1 [5-fluorouracil]
HCT116
Conditions | EC50 for viability [nM]
metabolite supplement: Hypoxanthine | 3080
metabolite supplement: Thymidine | 2220
metabolite supplement: Thymidine + Hypoxanthine | 3290

SW620, RPMI+GlutaMAX (10% FBS, 1% P/S)
Conditions | EC50 for viability [nM]
metabolite supplement: Folic acid | 4720
metabolite supplement: Folinic acid | 4280
metabolite supplement: Hypoxanthine | 7630
metabolite supplement: Thymidine | 4390
metabolite supplement: Thymidine + Folic acid | 4500
metabolite supplement: Thymidine + Folinic acid | 4320
metabolite supplement: Thymidine + Hypoxanthine | 7420
metabolite supplement: Vehicle | 5040

Cc1[nH]nc2c1C(c1cc(CO)cc(-c3ccccc3)c1)(C(C)C)C(C#N)=C(N)O2 (stereo not given) [SHIN1]
SW620, RPMI+GlutaMAX (10% FBS, 1% P/S)
Conditions | EC50 for viability [nM]
metabolite supplement: Hypoxanthine | > 10000
metabolite supplement: Sodium Formate | > 10000
metabolite supplement: Thymidine | 1880
metabolite supplement: Thymidine + Hypoxanthine | > 10000
metabolite supplement: Thymidine + Sodium Formate | > 10000

Nc1nc(N)c(CC(=O)Nc2cnc(C(=O)N[C@@H](CCC(=O)O)C(=O)O)c(F)c2)c(=O)[nH]1 [TH9619]
EC50 for viability [nM]
Conditions | metabolite supplement: Hypoxanthine | metabolite supplement: Hypoxanthine + Formate | metabolite supplement: Thymidine
HCT116 | 13.5 | – | 1190
SW620 MTHFD2-/- | 4230 | 30.1 | –

Conditions | EC50 for viability [nM]
PA-TU-8988T | 29.5

Conditions | EC50 for viability [nM]
SW620 MTHFD2 -/-, RPMI+GlutaMAX (5% dFBS, 1% P/S), metabolite supplement: Hypoxanthine | 25
SW620 MTHFD2 -/-, RPMI+GlutaMAX (5% dFBS, 1% P/S), metabolite supplement: Sodium Formate | 6.43
SW620 MTHFD2 -/-, RPMI+GlutaMAX (5% dFBS, 1% P/S), metabolite supplement: Thymidine | 0.821
SW620 MTHFD2 -/-, RPMI+GlutaMAX (5% dFBS, 1% P/S), metabolite supplement: Thymidine + Sodium Formate | > 10000
SW620 MTHFD2 -/-, RPMI+GlutaMAX (5% dFBS, 1% P/S), metabolite supplement: Vehicle | 1.03
SW620 MTHFD2 -/-, RPMI+GlutaMAX (10% FBS, 1% P/S), metabolite supplement: None | 2.82
SW620 MTHFD2 -/-, RPMI+GlutaMAX (10% dFBS, 1% P/S), metabolite supplement: None | 993
SW620 WT, RPMI+GlutaMAX (5% dFBS, 1% P/S), metabolite supplement: Adenine | 18.9
SW620 WT, RPMI+GlutaMAX (5% dFBS, 1% P/S), metabolite supplement: Adenosine | 18.3
SW620 WT, RPMI+GlutaMAX (5% dFBS, 1% P/S), metabolite supplement: Guanosine | 24.2
SW620 WT, RPMI+GlutaMAX (5% dFBS, 1% P/S), metabolite supplement: Hypoxanthine | 19.5
SW620 WT, RPMI+GlutaMAX (5% dFBS, 1% P/S), metabolite supplement: Hypoxanthine + AICAr 10 µM | 19.7
SW620 WT, RPMI+GlutaMAX (5% dFBS, 1% P/S), metabolite supplement: Hypoxanthine + AICAr 30 µM | 30.3
SW620 WT, RPMI+GlutaMAX (5% dFBS, 1% P/S), metabolite supplement: Hypoxanthine + AICAr 50 µM | 75.9
SW620 WT, RPMI+GlutaMAX (5% dFBS, 1% P/S), metabolite supplement: Hypoxanthine + AICAr 100 µM | 1670
SW620 WT, RPMI+GlutaMAX (5% dFBS, 1% P/S), metabolite supplement: Sodium Formate | 944
SW620 WT, RPMI+GlutaMAX (5% dFBS, 1% P/S), metabolite supplement: Thymidine | 1900
SW620 WT, RPMI+GlutaMAX (5% dFBS, 1% P/S), metabolite supplement: Thymidine + Sodium Formate | > 10000
SW620 WT, RPMI+GlutaMAX (5% dFBS, 1% P/S), metabolite supplement: Vehicle | 861
SW620 WT, RPMI+GlutaMAX (5% dFBS, 1% P/S, 10 uM Hypoxanthine), metabolite supplement: Thymidine 0.1 uM | 18.9
SW620 WT, RPMI+GlutaMAX (5% dFBS, 1% P/S, 10 uM Hypoxanthine), metabolite supplement: Thymidine 0.5 uM | 66.9
SW620 WT, RPMI+GlutaMAX (5% dFBS, 1% P/S, 10 uM Hypoxanthine), metabolite supplement: Thymidine 1uM | 3910
SW620 WT, RPMI+GlutaMAX (5% dFBS, 1% P/S, 10 uM Hypoxanthine), metabolite supplement: Thymidine 5uM | > 10000
SW620 WT, RPMI+GlutaMAX (5% dFBS, 1% P/S, 10 uM Hypoxanthine), metabolite supplement: Thymidine 10 uM | > 10000
SW620 WT, RPMI+GlutaMAX (5% dFBS, 1% P/S, 10 uM Hypoxanthine), metabolite supplement: Thymidine 25 uM | > 10000
SW620 WT, RPMI+GlutaMAX (5% dFBS, 1% P/S, 10 uM Hypoxanthine), metabolite supplement: Thymidine 50 uM | > 10000
SW620 WT, RPMI+GlutaMAX (5% dFBS, 1% P/S, 50 uM Hypoxanthine), metabolite supplement: Thymidine 0.1 uM | 17.4
SW620 WT, RPMI+GlutaMAX (5% dFBS, 1% P/S, 50 uM Hypoxanthine), metabolite supplement: Thymidine 0.5 uM | 26.3
SW620 WT, RPMI+GlutaMAX (5% dFBS, 1% P/S, 50 uM Hypoxanthine), metabolite supplement: Thymidine 1uM | 31.9
SW620 WT, RPMI+GlutaMAX (5% dFBS, 1% P/S, 50 uM Hypoxanthine), metabolite supplement: Thymidine 5uM | > 10000
SW620 WT, RPMI+GlutaMAX (5% dFBS, 1% P/S, 50 uM Hypoxanthine), metabolite supplement: Thymidine 10 uM | > 10000
SW620 WT, RPMI+GlutaMAX (5% dFBS, 1% P/S, 50 uM Hypoxanthine), metabolite supplement: Thymidine 25 uM | > 10000
SW620 WT, RPMI+GlutaMAX (5% dFBS, 1% P/S, 50 uM Hypoxanthine), metabolite supplement: Thymidine 50 uM | > 10000
SW620 WT, RPMI+GlutaMAX (10% FBS, 1% P/S), metabolite supplement: None | 32.9
SW620 WT, RPMI+GlutaMAX (10% dFBS, 1% P/S), metabolite supplement: None | 4.93
SW620, HPLM (5% dFBS, 1% P/S), metabolite supplement: Vehicle | 11.3
SW620, RPMI+GlutaMAX (5% FBS, 1% P/S), metabolite supplement: Vehicle | 24.9
SW620, RPMI+GlutaMAX (5% dFBS, 1% P/S), metabolite supplement: 0 nM Pyrazofurin | 1030
SW620, RPMI+GlutaMAX (5% dFBS, 1% P/S), metabolite supplement: 25 nM Pyrazofurin | 1160
SW620, RPMI+GlutaMAX (5% dFBS, 1% P/S), metabolite supplement: 50 nM Pyrazofurin | 365
SW620, RPMI+GlutaMAX (5% dFBS, 1% P/S), metabolite supplement: 0.5 µM Hypoxanthine | 287
SW620, RPMI+GlutaMAX (5% dFBS, 1% P/S), metabolite supplement: 1.0 µM Hypoxanthine | 75.5
SW620, RPMI+GlutaMAX (5% dFBS, 1% P/S), metabolite supplement: 5.0 µM Hypoxanthine | 14.1
SW620, RPMI+GlutaMAX (5% dFBS, 1% P/S), metabolite supplement: 10 µM Hypoxanthine | 13.2
SW620, RPMI+GlutaMAX (5% dFBS, 1% P/S), metabolite supplement: 12,5 nM Pyrazofurin | 1420
SW620, RPMI+GlutaMAX (5% dFBS, 1% P/S), metabolite supplement: 25 µM Hypoxanthine | 14.6
SW620, RPMI+GlutaMAX (5% dFBS, 1% P/S), metabolite supplement: 50 µM Hypoxanthine | 13.9
SW620, RPMI+GlutaMAX (5% dFBS, 1% P/S), metabolite supplement: Allopurinol | 312
SW620, RPMI+GlutaMAX (5% dFBS, 1% P/S), metabolite supplement: Allopurinol + Hypoxanthine | 15.5
SW620, RPMI+GlutaMAX (5% dFBS, 1% P/S), metabolite supplement: Deoxyuridine | 267
SW620, RPMI+GlutaMAX (5% dFBS, 1% P/S), metabolite supplement: Deoxyuridine + Hypoxanthine | 9.78
SW620, RPMI+GlutaMAX (5% dFBS, 1% P/S), metabolite supplement: Febuxostat | 766
SW620, RPMI+GlutaMAX (5% dFBS, 1% P/S), metabolite supplement: Febuxostat + Hypoxanthine | 25.2
SW620, RPMI+GlutaMAX (5% dFBS, 1% P/S), metabolite supplement: H2O2 | 406
SW620, RPMI+GlutaMAX (5% dFBS, 1% P/S), metabolite supplement: H2O2 + Hypoxanthine | 16.3
SW620, RPMI+GlutaMAX (5% dFBS, 1% P/S), metabolite supplement: Hypoxanthine | 15.4
SW620, RPMI+GlutaMAX (5% dFBS, 1% P/S), metabolite supplement: Orotic acid | 309
SW620, RPMI+GlutaMAX (5% dFBS, 1% P/S), metabolite supplement: Orotic acid + Hypoxanthine | 12.8
SW620, RPMI+GlutaMAX (5% dFBS, 1% P/S), metabolite supplement: Uric acid | 502
SW620, RPMI+GlutaMAX (5% dFBS, 1% P/S), metabolite supplement: Vehicle | 400
SW620, RPMI+GlutaMAX (5% dFBS, 1% P/S, 50 µM Hypoxanthine), metabolite supplement: 0 | 13.3
SW620, RPMI+GlutaMAX (10% FBS, 1% P/S), metabolite supplement: Folic acid | 4000
SW620, RPMI+GlutaMAX (10% FBS, 1% P/S), metabolite supplement: Folinic acid | > 10000
SW620, RPMI+GlutaMAX (10% FBS, 1% P/S), metabolite supplement: Hypoxanthine | 13.6
SW620, RPMI+GlutaMAX (10% FBS, 1% P/S), metabolite supplement: Sodium Formate | 15.3
SW620, RPMI+GlutaMAX (10% FBS, 1% P/S), metabolite supplement: Thymidine | 516
SW620, RPMI+GlutaMAX (10% FBS, 1% P/S), metabolite supplement: Thymidine + Folic acid | 8880
SW620, RPMI+GlutaMAX (10% FBS, 1% P/S), metabolite supplement: Thymidine + Sodium Formate | 538
SW620, RPMI+GlutaMAX (10% FBS, 1% P/S), metabolite supplement: Vehicle | 22.6
